Measurements as given in PubChem BioAssay (NCI).
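Values below derive from 48-hour exposures of cells grown in 96-well plates, with endpoints linearly interpolated between the two concentrations bracketing the appropriate inhibition level. Here, GI50 denotes the concentration required for 50% inhibition of growth. TGI: concentration producing complete growth inhibition.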

Assays:
Experiment in all cases: NCI anticancer screen, dose series, 48 h
OVCAR-4 ovarian = tested on: OVCAR-4 ovarian
TK-10 renal = tested on: TK-10 renal
SF-539 CNS = tested on: SF-539 CNS
SK-MEL-2 melanoma = tested on: SK-MEL-2 melanoma
RXF 393 renal = tested on: RXF 393 renal
HOP-62 NSCLC = tested on: HOP-62 NSCLC
M14 melanoma = tested on: M14 melanoma
SNB-75 CNS = tested on: SNB-75 CNS
MDA-MB-435 = tested on: MDA-MB-435
PC-3 prostate = tested on: PC-3 prostate

| Compound | TGI (OVCAR-4 ovarian) [µM] | TGI (TK-10 renal) [µM] | TGI (SF-539 CNS) [µM] | TGI (SK-MEL-2 melanoma) [µM] | TGI (RXF 393 renal) [µM] | TGI (HOP-62 NSCLC) [µM] | TGI (M14 melanoma) [µM] | TGI (SNB-75 CNS) [µM] | GI50 (OVCAR-4 ovarian) [µM] | GI50 (MDA-MB-435) [µM] | TGI (MDA-MB-435) [µM] | GI50 (TK-10 renal) [µM] | GI50 (M14 melanoma) [µM] | GI50 (SF-539 CNS) [µM] | GI50 (SK-MEL-2 melanoma) [µM] | GI50 (SNB-75 CNS) [µM] | GI50 (HOP-62 NSCLC) [µM] | GI50 (PC-3 prostate) [µM] | TGI (PC-3 prostate) [µM] | GI50 (RXF 393 renal) [µM] |
| --- | --- | --- | --- | --- | --- | --- | --- | --- | --- | --- | --- | --- | --- | --- | --- | --- | --- | --- | --- | --- |
| N#Cc1cccc(C2SCc3nc4ccccc4n32)c1 (centres undefined) | > 100 | > 100 | > 100 | > 100 | > 100 | > 100 |  |  |  |  |  |  |  |  |  |  |  |  |  |  |
| Cc1c(Cl)ccc2[s+]snc12 | > 100 | > 100 | 44.6 | 77.3 | 37.2 | > 100 | 77.8 | > 100 |  |  |  |  |  |  |  |  |  |  |  |  |
| O=C1C(=C2C(=O)c3ccccc3[N+]2=O)N([O-])c2ccccc21 | 31.7 | 81.1 | 47.7 |  | 90.6 |  | 43.7 | 83.8 |  |  |  |  |  |  |  |  |  |  |  |  |
| C#CC[C@]12CC(=O)CC[C@H]1CC1(C2)OCCO1 | > 100 | > 100 | > 100 | > 100 | > 100 | > 100 | > 100 | > 100 |  |  |  |  |  |  |  |  |  |  |  |  |
| O=C(CC1(O)C(=O)Nc2ccc(Br)cc21)c1cccc([N+](=O)[O-])c1 (centres undefined) | 67.1 | > 100 |  | > 100 | 83.8 | > 100 | > 100 | 97.2 |  |  |  |  |  |  |  |  |  |  |  |  |
| O=C(c1ccccc1)N1CCc2c([nH]c3ccccc23)C1 | > 100 | > 100 | > 100 | 71.2 |  | > 100 | > 100 | > 100 |  |  |  |  |  |  |  |  |  |  |  |  |
| CC1(C)OC2OC(/C=C/[N+](=O)[O-])C3OC(C)(C)OC3C2O1 (centres undefined) | 30.9 | 9.56 | 28.3 | 32.6 | 5.99 | 38.3 | 27.3 | 34.8 |  |  |  |  |  |  |  |  |  |  |  |  |
| COc1cc(CC2c3cc(OC)c(OC)cc3CCN2C)c(C(=O)O)cc1OC (centres undefined) |  | > 100 | > 100 | > 100 | > 100 | > 100 | > 100 | > 100 |  |  |  |  |  |  |  |  |  |  |  |  |
| COC(=O)N1C=Cc2c(c(C)c3c([nH]c4ccccc43)c2C)C1C (centres undefined) | 26.1 | 35.9 | 35.3 | 34 |  | 34.5 | 71.1 | 47.8 |  |  |  |  |  |  |  |  |  |  |  |  |
| N#CC1(C2CC(=O)N(c3ccccc3)C2=O)CCCCC1=O (centres undefined) | > 100 | > 100 | > 100 |  | > 100 |  | > 100 | > 100 |  |  |  |  |  |  |  |  |  |  |  |  |
| Cc1cc2c(=O)cc(-c3ccncc3)oc2c(C(N)=O)c1C |  | > 100 | > 100 | > 100 | > 100 | > 100 |  | > 100 |  |  |  |  |  |  |  |  |  |  |  |  |
| CC[C@H]1CNC(=O)CC1CC(=O)OC (some centres undefined) | > 100 | > 100 | > 100 | > 100 | > 100 | > 100 | > 100 | > 100 |  |  |  |  |  |  |  |  |  |  |  |  |
| O=C(Nc1cc(Cl)ccc1Cl)c1cc2ccccc2oc1=O |  | > 100 | > 100 | > 100 | > 100 | > 100 | > 100 | 62.9 |  |  |  |  |  |  |  |  |  |  |  |  |
| COC(=O)[C@@H](C)C[C@H](Cc1ccccc1)NC(=O)c1nc([C@@H](C[C@H](C(C)C)N(C)C(=O)[C@@H](NC(=O)[C@H]2CC(=O)CCN2C)C(C)C)OC(C)=O)sc1C(C)C | > 16.7 | > 16.7 | 0.967 | > 16.7 |  | > 16.7 | 1.18 | > 15 | 1.34 | 0.0169 | 0.0921 | 1.43 | 0.217 | 0.345 | 0.104 | 0.0518 | 0.694 | 0.129 | > 16.7 |  |
| CC(=O)O[C@@H]1[C@H]2O[C@H]2[C@H]2O[C@@]2(COC(=O)c2ccccc2)[C@H]1OC(C)=O | > 100 | > 100 | > 100 | > 100 |  |  | > 100 | > 100 |  |  | > 100 |  |  |  |  |  |  |  | > 100 |  |
| O=C(/C=C/c1c[nH]c2ccccc12)c1ccccc1O | 27 | 32.8 | 25.1 | 18.6 |  | 28.1 | 27 | 27.2 |  |  | 27.9 |  |  |  |  |  |  |  | 18.7 |  |
| CCCCP1(=O)C=CC(Cl)=C(C)C1 (centres undefined) | > 100 | > 100 | > 100 | > 100 | > 100 | > 100 | > 100 |  |  |  |  |  |  |  |  |  |  |  |  |  |

| Compound | TGI (OVCAR-4 ovarian) [µM] | TGI (TK-10 renal) [µM] | TGI (SF-539 CNS) [µM] | TGI (SK-MEL-2 melanoma) [µM] | TGI (RXF 393 renal) [µM] | TGI (HOP-62 NSCLC) [µM] | TGI (M14 melanoma) [µM] | TGI (SNB-75 CNS) [µM] | GI50 (OVCAR-4 ovarian) [µM] | GI50 (MDA-MB-435) [µM] | TGI (MDA-MB-435) [µM] | GI50 (TK-10 renal) [µM] | GI50 (M14 melanoma) [µM] | GI50 (SF-539 CNS) [µM] | GI50 (SK-MEL-2 melanoma) [µM] | GI50 (SNB-75 CNS) [µM] | GI50 (HOP-62 NSCLC) [µM] | GI50 (PC-3 prostate) [µM] | TGI (PC-3 prostate) [µM] | GI50 (RXF 393 renal) [µM] |
| --- | --- | --- | --- | --- | --- | --- | --- | --- | --- | --- | --- | --- | --- | --- | --- | --- | --- | --- | --- | --- |
| COc1cc(Br)c(C2OCCCO2)cc1OCc1ccccc1 | > 100 | > 100 | > 100 | > 100 | > 100 | > 100 | > 100 | > 100 |  |  |  |  |  |  |  |  |  |  |  |  |
| C/C(=N\NC(N)=S)c1ccc(Oc2ccccc2)cc1 | 16.8 | 21.8 | 17.6 |  | 26.2 | 46.6 | 25.8 | 33.6 |  |  |  |  |  |  |  |  |  |  |  |  |
| O=P(c1ccccc1)(c1ccccc1)C1CC=C2CCCCCC2C1 (centres undefined) | 67.4 | > 100 | > 10 | 81.6 | 72.6 |  | 40.9 | 62.7 |  |  |  |  |  |  |  |  |  |  |  |  |
| BrC(/C=N/Nc1nnc(-c2ccccc2)c(-c2ccccc2)n1)C(Br)c1ccccc1 (centres undefined) |  | > 100 | > 100 | 73.2 | > 100 | 92.2 | 51.8 | 78.6 |  |  |  |  |  |  |  |  |  |  |  |  |
| COc1cc(C(=O)N[C@@H]2CCCN(C)C2)ccc1Nc1ncc2c(n1)N(C1CCCC1)CC(C)(C)C(=O)N2C | 23.4 | 20.9 | 1.69 |  | 8.99 | 10.2 | 0.769 | 4.74 | 10.8 |  |  | 4.3 | 0.0494 | 0.203 |  | 0.134 | 0.0641 | 0.0646 | 19.9 | 0.0427 |
| CCc1cccc(CC)c1NC1=CC(=O)C(=O)c2ccccc21 | 27.8 | 56.3 | 35.4 | 35.9 | 45.2 | 40.3 | 27.2 | 49.3 |  |  |  |  |  |  |  |  |  |  |  |  |
| Cc1nn(-c2ccccc2)c2c1[C@@H](C)[C@H]1CC3(CC4(C)C[C@@H]3C1(C)c1c(C)nn(-c3ccccc3)c1N4C)N2C (some centres undefined) | > 100 | > 100 | > 100 | > 100 | 48.2 | > 100 |  |  | 8.66 |  |  | > 100 |  | > 100 | > 100 |  | 18.3 | 0.591 | > 100 | 3.41 |
| Cc1cc(Br)ccc1N=NC1C(=O)ON=C1c1ccccc1 (centres undefined) | > 100 | > 100 | > 100 | > 100 | > 100 | > 100 | > 100 | > 100 |  |  |  |  |  |  |  |  |  |  |  |  |
| CC(=O)[O-].O=C([CH-]C(=O)c1ccccc1)c1ccccc1.O=C([CH-]C(=O)c1ccccc1)c1ccccc1.[Dy+3] | > 100 | 86.5 | 56.1 | 37.4 | 34.7 | 31.9 | 36 | 8.46 | 16.5 |  |  | 27.4 | 15.9 | 18.9 | 14.9 | 3.33 | 6.91 |  |  | 6.84 |
| CCCCCCCCCCCCCCCCCCCCCCC(=O)N[C@H]1CCc2cc(OC)c(OC)c(OC)c2-c2ccc(SC)c(=O)cc21 | > 100 | > 100 | 41.3 |  |  | > 100 | 90.4 | 58.2 |  |  |  |  |  |  |  |  |  |  |  |  |
| CC1SC(c2ccc(OCc3ccccc3)cc2)N(NC(=O)C(O)(c2ccccc2)c2ccccc2)C1=O (centres undefined) | 36 | 14.3 | 42.6 | 18.8 |  | 8.1 |  | 18.1 | 5.13 | 3.52 | 13.8 | 2.57 |  | 14 | 4.36 | 3.72 | 2.01 | 2.08 | 6.85 |  |
| C=CC(C)(C)[C@@]12CC3C(=O)N[C@@H](Cc4ccccc4)C(=O)N3[C@@H]1N(C(C)=O)c1ccccc12 (some centres undefined) | 97.5 | > 100 | > 100 | > 100 |  | > 100 | > 100 | > 100 |  |  |  |  |  |  |  |  |  |  |  |  |
| CC(=O)Nc1ccc(/C=C/C(=O)c2sc(-n3nc(-c4ccccc4)cc3-c3ccccc3)nc2C)cc1 | > 100 | > 100 | > 100 | > 100 | > 100 | > 100 | > 100 | > 100 |  |  |  | > 100 | > 100 | > 100 | > 100 | > 100 | > 100 |  |  | > 100 |
| O=C1N(c2ccccc2)C2(O)C(=O)c3ccccc3C2(O)N1c1ccccc1 (centres undefined) | > 100 | > 100 | > 100 | > 100 | > 100 | > 100 | > 100 | > 100 |  |  |  |  |  |  |  |  |  |  |  |  |
| O=c1ccn([C@@H]2C[C@H](CO)CS(=O)C2)c(=O)[nH]1 (some centres undefined) | > 100 | > 100 | > 100 | > 100 |  | > 100 | > 100 | > 100 |  |  |  |  |  |  |  |  |  |  |  |  |
| CCOc1ccc(/C=C/C(=O)c2sc(NNC(C)=O)nc2C)cc1 |  | > 100 | > 100 | > 100 | > 100 | > 100 |  | > 100 |  |  |  |  |  |  |  |  |  |  |  |  |
